Starred links: 1 amine or outer side, 2 acyl side, 3 side chain; linkers in the order of their positions; H or OH if unused. Non-standard residues stand in square brackets, D forms with d. Residues, ends and D or L forms follow the SMILES beside them. Groups on a side chain read outwards from the residue. *: point of attachment. C18 diacid = O=C(O)CCCCCCCCCCCCCCCCC(=O)*; γGlu = O=C(O)[C@H](CCC(=O)[*:2])N[*:1]; AEEA = NCCOCCOCC(=O)O; Aib = CC(C)(N)C(=O)O
Columns and labels:
[1] = biological target: T1, human GLP-1 receptor (Homo sapiens, UniProt P43220); assay: Assay (II)(a) GLP-1 receptor binding, 125I-GLP-1 displacement SPA on BHK membranes; details: without presence of serum albumin; read-out: GLP-1R IC50 (nM) [Assay (II)(a)]
T1 construct: expressed in transfected cells; host or cells: membranes of BHK cells (parent BHKTS13), clone FCW467-12A
T1 sequence (P43220 24-463): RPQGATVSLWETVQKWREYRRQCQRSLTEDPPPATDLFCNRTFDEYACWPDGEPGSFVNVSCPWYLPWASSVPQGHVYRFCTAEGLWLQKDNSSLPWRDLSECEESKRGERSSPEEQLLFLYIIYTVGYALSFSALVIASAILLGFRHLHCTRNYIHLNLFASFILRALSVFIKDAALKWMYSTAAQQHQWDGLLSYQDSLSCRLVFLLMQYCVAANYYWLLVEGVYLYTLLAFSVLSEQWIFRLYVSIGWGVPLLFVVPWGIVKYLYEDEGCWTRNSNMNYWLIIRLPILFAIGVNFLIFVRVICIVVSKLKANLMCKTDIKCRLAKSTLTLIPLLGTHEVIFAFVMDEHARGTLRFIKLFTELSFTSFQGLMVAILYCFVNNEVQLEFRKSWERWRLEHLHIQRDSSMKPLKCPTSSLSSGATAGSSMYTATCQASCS
Outline: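 Membranes from BHK cells (clone FCW467-12A) stably expressing human GLP-1R were incubated with serially diluted compounds (8×10EE-13 to 8×10EE-7 M before addition) and [125I]-GLP-1-(7-36)NH2 with WGA SPA beads, 2 h at 30° C, pH 7.4. IC50 taken from displacement by non-linear regression. Run at ≤0.001% or 2.0% final serum albumin.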

[2] = Assay (III) ThT fibrillation assay for physical stability; assay type: physicochemical; details: 250 μM in 10 mM HEPES buffer, 37° C., shaking 960 rpm
Text: The purpose of this assay is to assess the physical stability of the glucagon derivatives of the invention in aqueous solutions. Low physical stability of a peptide may lead to amyloid fibril formation, which is observed as well-ordered, thread-like macromolecular structures in the sample, which eventually may lead to gel formation. This has traditionally been measured by visual inspection of the sample. However, that kind of measurement is very subjective and depending on the observer. Therefore, the application of a small molecule indicator probe is much more advantageous. Thioflavin T (ThT) is such a probe and has a distinct fluorescence signature when binding to fibrils [Naiki et al. (1989) Anal. Biochem. 177, 244-249; LeVine (1999) Methods. Enzymol. 309, 274-284]. […] The constant t0 is the time needed to reach 50% of maximum fluorescence. The two important parameters describing fibril formation are the lag-time calculated by t0−2τ and the apparent rate constant kapp 1/τ. Samples were prepared freshly before each assay. Each sample composition is described in the legends. The pH of the sample was adjusted to the desired value using appropriate amounts of concentrated NaOH and HCl. Thioflavin T was added to the samples from a stock solution in H2O to a final concentration of 1 μM. Sample aliquots of 200 μl (250 μM of the glucagon derivative in 10 mM HEPES buffer, pH 7.5) were placed in a 96 well microtiter plate (Packard OptiPlate™-96, white polystyrene). Usually, four or eight replica of each sample (corresponding to one test condition) were placed in one column of wells. The plate was sealed with Scotch Pad (Qiagen). Incubation at given temperature, shaking and measurement of the ThT fluorescence emission were done in a Fluoroskan Ascent FL fluorescence platereader (Thermo Labsystems). The temperature was adjusted to 37° C. The plate was incubated with orbital shaking adjusted to 960 rpm with an amplitude of 1 mm. Fluorescence measurement was done using excitation through a 444 nm filter and measurement of emission through a 485 nm filter. Each run was initiated by incubating the plate at the assay temperature for 10 min. The plate was measured every 20 minutes for a desired period of time. Between each measurement, the plate was shaken and heated as described. After completion of the ThT assay the four or eight replica of each sample was pooled and centrifuged at 20000 rpm for 30 minutes at 18° C. The supernatant was filtered through a 0.22 μm filter and an aliquot was transferred to a HPLC vial. The concentration of peptide in the initial sample and in the filtered supernatant was determined by reverse phase HPLC using an appropriate standard as reference. The percentage fraction the concentration of the filtered sample constituted of the initial sample concentration was reported as the recovery. The measurement points were saved in Microsoft Excel format for further processing and curve drawing and fitting was performed using GraphPad Prism. The background emission from ThT in the absence of fibrils was negligible. The data points are typically a mean of four or eight samples and shown with standard deviation error bars. Only data obtained in the same experiment (i.e. samples on the same plate) are presented in the same graph ensuring a relative measure of fibrillation between experiments. The data set may be fitted to Eq. (1).

## CC[C@H](C)[C@H](NC(=O)[C@H](CC(C)C)NC(=O)[C@H](Cc1c[nH]c2ccccc12)NC(=O)[C@H](CCC(N)=O)NC(=O)[C@@H](NC(=O)[C@H](Cc1ccccc1)NC(=O)[C@H](CCC(=O)O)NC(=O)[C@H](CCCNC(=N)N)NC(=O)[C@H](C)NC(=O)[C@H](CCCNC(=N)N)NC(=O)[C@H](CCCNC(=N)N)NC(=O)[C@H](CC(C)C)NC(=O)[C@H](CC(=O)O)NC(=O)[C@H](CC(C)C)NC(=O)[C@H](Cc1ccc(O)cc1)NC(=O)[C@H](CCCCN)NC(=O)[C@H](CO)NC(=O)[C@H](CC(C)C)NC(=O)[C@H](CC(=O)O)NC(=O)[C@H](CO)NC(=O)[C@@H](NC(=O)[C@H](Cc1ccccc1)NC(=O)[C@@H](NC(=O)CNC(=O)[C@H](CCC(N)=O)NC(=O)C(C)(C)NC(=O)[C@@H](N)Cc1c[nH]cn1)[C@@H](C)O)[C@@H](C)O)C(C)C)C(=O)N[C@@H](CC(N)=O)C(=O)N[C@@H](CCCCNC(=O)CC[C@H](NC(=O)CC[C@H](NC(=O)COCCOCCNC(=O)COCCOCCNC(=O)CC[C@H](NC(=O)CCCCCCCCCCCCCCCCC(=O)O)C(=O)O)C(=O)O)C(=O)O)C(N)=O [Chem. 22, N^ε29-[(4S)-4-carboxy-4-[[(4S)-4-carboxy-4-[[2-[2-[2-[[2-[2-[2-[[(4S)-4-carboxy-4-(17-carboxyheptadecanoylamino)butanoyl]amino]ethoxy]ethoxy]acetyl]amino]ethoxy]ethoxy]acetyl]amino]butanoyl]amino]butanoyl]-[Aib2,Leu10,Leu16,Arg20,Glu21,Ile27,Lys29]-Glucagon amide] (H-H[Aib]QGTFTSDLSKYLDLRRAREFVQWLINK([γGlu-γGlu-AEEA-AEEA-γGlu-C18 diacid])-NH2; N-terminus assumed)
[1]
  IC50: 0.3 nM
[2]
  ThT Assay Lag time (h) [Assay (III), pH 7.5]: 45.0 h

## CC[C@H](C)[C@H](NC(=O)[C@H](CC(C)C)NC(=O)[C@H](Cc1c[nH]c2ccccc12)NC(=O)[C@H](CCC(N)=O)NC(=O)[C@@H](NC(=O)[C@H](Cc1ccccc1)NC(=O)[C@H](CC(=O)O)NC(=O)[C@H](CCCNC(=N)N)NC(=O)[C@H](C)NC(=O)[C@H](CCCNC(=N)N)NC(=O)[C@H](CCCNC(=N)N)NC(=O)[C@H](CC(C)C)NC(=O)[C@H](CC(=O)O)NC(=O)[C@H](CC(C)C)NC(=O)[C@H](Cc1ccc(O)cc1)NC(=O)[C@H](CCCCN)NC(=O)[C@H](CO)NC(=O)[C@H](CC(C)C)NC(=O)[C@H](CC(=O)O)NC(=O)[C@H](CO)NC(=O)[C@@H](NC(=O)[C@H](Cc1ccccc1)NC(=O)[C@@H](NC(=O)CNC(=O)[C@H](CCC(N)=O)NC(=O)C(C)(C)NC(=O)[C@@H](N)Cc1c[nH]cn1)[C@@H](C)O)[C@@H](C)O)C(C)C)C(=O)N[C@@H](CC(N)=O)C(=O)N[C@@H](CCCCNC(=O)CC[C@H](NC(=O)CC[C@H](NC(=O)COCCOCCNC(=O)COCCOCCNC(=O)CC[C@H](NC(=O)CCCCCCCCCCCCCCCCC(=O)O)C(=O)O)C(=O)O)C(=O)O)C(N)=O [Chem. 23, N^ε29-[(4S)-4-carboxy-4-[[(4S)-4-carboxy-4-[[2-[2-[2-[[2-[2-[2-[[(4S)-4-carboxy-4-(17-carboxyheptadecanoylamino)butanoyl]amino]ethoxy]ethoxy]acetyl]amino]ethoxy]ethoxy]acetyl]amino]butanoyl]amino]butanoyl]-[Aib2,Leu10,Leu16,Arg20,Ile27,Lys29]-Glucagon amide] (H-H[Aib]QGTFTSDLSKYLDLRRARDFVQWLINK([γGlu-γGlu-AEEA-AEEA-γGlu-C18 diacid])-NH2; N-terminus assumed)
[1]
  IC50: 0.3 nM
[2]
  ThT Assay Lag time (h) [Assay (III), pH 7.5]: 45.0 h

## CC[C@H](C)[C@H](NC(=O)[C@H](CC(C)C)NC(=O)[C@H](Cc1c[nH]c2ccccc12)NC(=O)[C@H](CCC(N)=O)NC(=O)[C@@H](NC(=O)[C@H](Cc1ccccc1)NC(=O)[C@H](CCC(=O)O)NC(=O)[C@H](CCCNC(=N)N)NC(=O)[C@H](C)NC(=O)[C@H](CCCNC(=N)N)NC(=O)[C@H](CCCNC(=N)N)NC(=O)[C@H](CC(C)C)NC(=O)[C@H](CC(=O)O)NC(=O)[C@H](CC(C)C)NC(=O)[C@H](Cc1ccc(O)cc1)NC(=O)[C@H](CCCCN)NC(=O)[C@H](CO)NC(=O)[C@H](CC(C)C)NC(=O)[C@H](CC(=O)O)NC(=O)[C@H](CO)NC(=O)[C@@H](NC(=O)[C@H](Cc1ccccc1)NC(=O)[C@@H](NC(=O)CNC(=O)[C@H](CCC(N)=O)NC(=O)C(C)(C)NC(=O)[C@@H](N)Cc1c[nH]cn1)[C@@H](C)O)[C@@H](C)O)C(C)C)C(=O)N[C@@H](CO)C(=O)N[C@@H](CCCCNC(=O)CC[C@H](NC(=O)CC[C@H](NC(=O)COCCOCCNC(=O)COCCOCCNC(=O)CC[C@H](NC(=O)CCCCCCCCCCCCCCCCC(=O)O)C(=O)O)C(=O)O)C(=O)O)C(N)=O [Chem. 30, N^ε29-[(4S)-4-carboxy-4-[[(4S)-4-carboxy-4-[[2-[2-[2-[[2-[2-[2-[[(4S)-4-carboxy-4-(17-carboxyheptadecanoylamino)butanoyl]amino]ethoxy]ethoxy]acetyl]amino]ethoxy]ethoxy]acetyl]amino]butanoyl]amino]butanoyl]-[Aib2,Leu10,Leu16,Arg20,Glu21,Ile27,Ser28,Lys29]-Glucagon amide] (H-H[Aib]QGTFTSDLSKYLDLRRAREFVQWLISK([γGlu-γGlu-AEEA-AEEA-γGlu-C18 diacid])-NH2; N-terminus assumed)
[1]
  IC50: 0.9 nM
[2]
  ThT Assay Lag time (h) [Assay (III), pH 7.5]: 45.0 h

## CC[C@H](C)[C@H](NC(=O)[C@H](CC(C)C)NC(=O)[C@H](Cc1c[nH]c2ccccc12)NC(=O)[C@H](C)NC(=O)[C@@H](NC(=O)[C@H](Cc1ccccc1)NC(=O)[C@H](CC(=O)O)NC(=O)[C@H](CCC(N)=O)NC(=O)[C@H](C)NC(=O)[C@H](CCCNC(=N)N)NC(=O)[C@H](CCCNC(=N)N)NC(=O)[C@H](CO)NC(=O)[C@H](CCC(=O)O)NC(=O)[C@H](CC(C)C)NC(=O)[C@H](Cc1ccc(O)cc1)NC(=O)[C@H](CCCCN)NC(=O)[C@H](CO)NC(=O)[C@H](Cc1ccc(O)cc1)NC(=O)[C@H](CC(=O)O)NC(=O)[C@H](CO)NC(=O)[C@@H](NC(=O)[C@H](Cc1ccccc1)NC(=O)[C@@H](NC(=O)CNC(=O)[C@H](CCC(N)=O)NC(=O)C(C)(C)NC(=O)[C@@H](N)Cc1c[nH]cn1)[C@@H](C)O)[C@@H](C)O)C(C)C)C(=O)N[C@@H](CO)C(=O)N[C@@H](CCCCNC(=O)CC[C@H](NC(=O)CC[C@H](NC(=O)COCCOCCNC(=O)COCCOCCNC(=O)CC[C@H](NC(=O)CCCCCCCCCCCCCCCCC(=O)O)C(=O)O)C(=O)O)C(=O)O)C(N)=O [Chem. 35, N^ε29-[(4S)-4-carboxy-4-[[(4S)-4-carboxy-4-[[2-[2-[2-[[2-[2-[2-[[(4S)-4-carboxy-4-(17-carboxyheptadecanoylamino)butanoyl]amino]ethoxy]ethoxy]acetyl]amino]ethoxy]ethoxy]acetyl]amino]butanoyl]amino]butanoyl]-[Aib2,Glu15,Ala24,Ile27,Ser28,Lys29]-Glucagon amide] (H-H[Aib]QGTFTSDYSKYLESRRAQDFVAWLISK([γGlu-γGlu-AEEA-AEEA-γGlu-C18 diacid])-NH2)
[1]
  IC50: 2.2 nM
[2]
  ThT Assay Lag time (h) [Assay (III), pH 7.5]: 45.0 h

Source: patent US10570184B2, “GLP-1/glucagon receptor co-agonists for medical use” (Novo Nordisk A/S, priority 2014, dated 2020)
